Reference: US11975050B2, “Parathyroid hormone polypeptide conjugates and methods of their use” (The General Hospital Corporation, priority 2018, dated 2024)
Read-outs that look alike come from different tables or passages of the source. Starred links: 1 amine or outer side, 2 acyl side, 3 side chain; linkers in the order of their positions; H or OH if unused. Non-standard residues stand in square brackets, D forms with d. Primed or numbered codes have the meaning given here. No end group written: not given here. K(Palm) = CCCCCCCCCCCCCCCC(=O)NCCCC[C@H](N[*:1])C(=O)[*:2]; PEG2′ = short PEG2 spacer in the linker

Key:
in vivo = conditions: mouse, sc
Protocol: (§1) Mice were injected IV via the tail vein or subcutaneously with ligands in vehicle (0.05% Tween 80; 10 mM citrate; 150 mM NaCl; pH 5.0) to give the intended final ligand dose (e.g. 50 nmol/kg body weight). At times immediately before (t=0) and after injection, tail vein blood was collected and analyzed for concentrations of administered peptides or blood ionized calcium (Ca^2+) measured with a RAPIDLAB 348 analyzer (SIEMENS Healthcare Diagnostic, United Kingdom).

[1] = Blood ionized calcium in mice after injection; assay type: in vivo; conditions: single dose 10 nmol/kg i.v.
Description: Data are means±SEM; n=6 mice per group.
In Vivo Testing of the Polypeptides Wild-type, ca. 10-week old male C57BL/6J mice were purchased from the Charles River Laboratories (Wilmington, Massachusetts, USA). The origin and method of breeding of Col1-H223R “Jansen's” transgenic mice is described by Calvi et al. (J. Clin. Invest. 107:277-286, 2001). Mice were maintained in facilities operated by the Center for Comparative Research of the Massachusetts General Hospital, and acclimated in the facilities for seven days prior to being used for study. All experimental procedures were approved by the MGH Institutional Animal Care and Use Committee (IACUC). In each study, animals were assigned randomly to treatment groups. Where possible, power calculations established that the number of animals used per study group was sufficient to detect statistically significant differences in intended primary experimental outcomes (i.e., changes in serum Ca and Pi).

[2] = Pharmacokinetic properties in mice, hPTH(1-34) ELISA of plasma
Protocol: as §1

[3] = mouse, in vivo, sc
Protocol: as §1

PTH receptor = biological target: T1, PTH receptor (Homo sapiens, UniProt Q03431); assay: cAMP signaling in SaOS2/glosensor (SGS-72) cells; assay type: cell-based; conditions: for Max %: maximum cAMP response relative to PTH(1-34)-2009
T1 construct: endogenous in cells; host or cells: SaOS2-derived SGS-72 cells (human osteoblast line stably transfected with the GloSensor cAMP reporter)
T1 sequence (Q03431 27-593): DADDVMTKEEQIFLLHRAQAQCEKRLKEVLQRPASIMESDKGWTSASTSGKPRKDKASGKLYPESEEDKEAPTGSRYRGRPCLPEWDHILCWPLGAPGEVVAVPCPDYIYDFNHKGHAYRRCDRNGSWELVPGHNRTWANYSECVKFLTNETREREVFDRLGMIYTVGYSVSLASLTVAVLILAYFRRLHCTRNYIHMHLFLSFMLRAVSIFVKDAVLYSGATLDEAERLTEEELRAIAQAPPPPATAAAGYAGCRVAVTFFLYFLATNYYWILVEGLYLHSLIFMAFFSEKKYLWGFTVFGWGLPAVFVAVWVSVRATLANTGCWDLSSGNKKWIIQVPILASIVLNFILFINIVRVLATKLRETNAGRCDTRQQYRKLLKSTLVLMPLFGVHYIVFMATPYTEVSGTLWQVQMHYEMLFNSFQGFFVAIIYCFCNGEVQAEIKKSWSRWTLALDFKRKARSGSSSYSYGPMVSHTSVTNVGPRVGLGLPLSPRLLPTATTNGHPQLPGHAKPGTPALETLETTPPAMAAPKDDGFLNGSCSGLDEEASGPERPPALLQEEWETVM
Protocol: The cells are derived from the human osteoblast cell line, SaOS2 by stable transfection with a glosensor cAMP reporter.
cAMP signaling was assessed in an SaOS2-derived cell line stably expressing the luciferase-based GloSensor™ cAMP reporter (Hattersley et al., Paper presented at: Novel Signaling Mechanisms and Bone Cell Biology 2014; Binkowski et al., Methods in Molecular Biology 756:263-271, 2011). The cells were seeded into 96-well white plates and were assayed 24 to 48 hours post-confluency. Assays were performed at room temperature in CO2-independent culture media (Life Technologies, Corp., Carlsbad, CA) containing 0.1% BSA (CIDB). […] The time at which maximum luminescence (cps) observed with agonist alone, typically at 10-20 minutes after agonist addition, was used to obtain data from wells containing antagonist with or without agonist, to thus generate antagonist ligand dose-response curves. The resulting cps values were then plotted against ligand concentration using GraphPad Prism 7.0 software and a four-parameter logistics curve fitting equation, which yielded parameters of inhibitory potency (pIC50).

[4] = Hypophosphatemic effect (total inorganic phosphorus) in mice; assay type: in vivo; conditions: as compared to PTH(1-34)
Description: Tail vein blood and spot urine were collected just prior to injection (t=0) and at the indicated times after injection.
Peptide doses for FIGS. 4A and 4B were 10 nmol/kg, while peptide doses were 50 nmol/kg for FIGS. 4C and 4D. T-test vs. vehicle: *p<0.05; PTH vs. Palm: +p<0.05. Mice were CD1 females, age 10 weeks. Data are means±SEM, n=6.

half-life (in vivo)	AUC (in vivo; 10 nmol/kg)	half-life (in vivo; 10 nmol/kg)	total area-under-the-curve [3]	Max % (PTH receptor; means ± SEM)	pEC50 (log molar concentration to attain 50% of maximum response observed with PTH(1-34)-2009) (PTH receptor; SaOS2/glosensor (SGS-72) cells, means ± SEM, n = 5)	EC50 (PTH receptor; SaOS2/glosensor (SGS-72) cells, read-out: EC50, concentration in nM shown below pEC50 (converted))	Molecule	duration of increase of blood Ca2+ levels [1]	Cmax ([2]; mouse, plasma, sc, 10 nmol/kg)	hypophosphatemic effects [4]	total area-under-the-curve ([2]; mice, single injection 10 mnol/kg s.c.)	AUC ([2]; mouse, plasma, sc, 10 nmol/kg)	Tmax ([2]; mouse, plasma, sc, 10 nmol/kg)	half-life ([2]; mouse, plasma, sc, 10 nmol/kg)
12 min	0.00043 µM·h	12 min	0.00043 µM·h	100 ± 0%	–	–	CC[C@H](C)[C@H](NC(=O)[C@H](CCC(=O)O)NC(=O)[C@H](CO)NC(=O)[C@@H](NC(=O)[C@@H](N)CO)C(C)C)C(=O)N[C@@H](CCC(N)=O)C(=O)N[C@@H](CC(C)C)C(=O)N[C@@H](CCSC)C(=O)N[C@@H](Cc1cnc[nH]1)C(=O)N[C@@H](CC(N)=O)C(=O)N[C@@H](CC(C)C)C(=O)NCC(=O)N[C@@H](CCCCN)C(=O)N[C@@H](Cc1cnc[nH]1)C(=O)N[C@@H](CC(C)C)C(=O)N[C@@H](CC(N)=O)C(=O)N[C@@H](CO)C(=O)N[C@@H](CCSC)C(=O)N[C@@H](CCC(=O)O)C(=O)N[C@@H](CCCNC(=N)N)C(=O)N[C@H](C(=O)N[C@@H](CCC(=O)O)C(=O)N[C@@H](Cc1c[nH]c2ccccc12)C(=O)N[C@@H](CC(C)C)C(=O)N[C@@H](CCCNC(=N)N)C(=O)N[C@@H](CCCCN)C(=O)N[C@@H](CCCCN)C(=O)N[C@@H](CC(C)C)C(=O)N[C@@H](CCC(N)=O)C(=O)N[C@@H](CC(=O)O)C(=O)N[C@H](C(=O)N[C@@H](Cc1cnc[nH]1)C(=O)N[C@@H](CC(N)=O)C(=O)N[C@@H](Cc1ccccc1)C(N)=O)C(C)C)C(C)C [PTH(1-34)-2009, PTH(1-34)]	≤ 4 h	0.65 nM	–	–	–	–	–
–	–	–	–	77 ± 8%	8.72 ± 0.15	1.91 nM	W1-Palm-PTH(1-34) (WVSEIQLMHNLGKHLNSMERVEWLRKKLQDVHNF[PEG2′]EYE-{K(Palm)-Glu-Tyr-Glu-NH2}) [Trp1-Palm-PTH(1-34)-2029]	–	–	–	–	–	–	–
–	–	–	–	–	–	–	CCCCCCCCCCCCCCCC(=O)NCCCC[C@H](NC(=O)[C@H](CCC(=O)O)NC(=O)[C@H](Cc1ccc(O)cc1)NC(=O)[C@H](CCC(=O)O)NC(=O)COCCOCCNC(=O)[C@H](Cc1ccccc1)NC(=O)[C@H](CC(N)=O)NC(=O)[C@H](Cc1c[nH]cn1)NC(=O)[C@@H](NC(=O)[C@H](CC(=O)O)NC(=O)[C@H](CCC(N)=O)NC(=O)[C@H](CC(C)C)NC(=O)[C@H](CCCCN)NC(=O)[C@H](CCCCN)NC(=O)[C@H](CCCNC(=N)N)NC(=O)[C@H](CC(C)C)NC(=O)[C@H](Cc1c[nH]c2ccccc12)NC(=O)[C@H](CCC(=O)O)NC(=O)[C@@H](NC(=O)[C@H](CCCNC(=N)N)NC(=O)[C@H](CCC(=O)O)NC(=O)[C@H](CCSC)NC(=O)[C@H](CO)NC(=O)[C@H](CC(N)=O)NC(=O)[C@H](CC(C)C)NC(=O)[C@H](Cc1c[nH]cn1)NC(=O)[C@H](CCCCN)NC(=O)CNC(=O)[C@H](CC(C)C)NC(=O)[C@H](CC(N)=O)NC(=O)[C@H](Cc1c[nH]cn1)NC(=O)[C@H](CCSC)NC(=O)[C@H](CC(C)C)NC(=O)[C@H](CCC(N)=O)NC(=O)[C@@H](NC(=O)[C@H](CCC(=O)O)NC(=O)[C@H](CO)NC(=O)[C@@H](NC(=O)[C@@H](N)CO)C(C)C)[C@@H](C)CC)C(C)C)C(C)C)C(=O)N[C@@H](CCC(=O)O)C(=O)N[C@@H](Cc1ccc(O)cc1)C(=O)N[C@@H](CCC(=O)O)C(N)=O [Palm-PTH(1-34)-2027, Palm-PTH(1-34)]	at least 24 hours	28.1 nM	prolonged hypophosphatemic effects	0.116 µM·h	0.116 µM·h	60 min	114 min
